Laboratory results: patent US12534583B2, “Compositions and polymer films” (Fujifilm Manufacturing Europe B.V., priority 2020, dated 2026)
Structures can show the parent of a compound that is named as a salt.

Assay: Solubility in water determined visually or by UV-spectrometry
Conditions: 40° C. overnight, M = Li
Procedure: The solubility of the compounds of Formula (I) was determined visually or by UV-spectrometry. For each compound of Formula (I), three solutions were prepared: one solution at 30 wt %, one solution at 60 wt %, and one solution at 70 wt % containing a 1:1 molar ratio of the compound of Formula (I) with cross-linker Li-BVBSI. 500 ppm 40H-TEMPO was included in all three solutions to prevent premature polymerisation. The solutions were kept in a water bath of 40° C. overnight and centrifuged prior inspection. UV spectra were recorded in a Cary™ 100 UV-visible spectrophotometer from Agilent Technologies using a 1 mm path length quartz cuvette.

With `C=Cc1ccc(S(=O)(=O)NS(=O)(=O)C(F)(F)F)cc1` [MM-Tf, Benzenesulphonamide, 4-ethenyl-N-[(trifluoromethyl)sulphonyl]-, lithium salt, reference compound] as the compound, how does the “Solubility in water at 40° C.” value read?
The value was >60 wt %.

Which “Solubility in water at 40° C.” value does the source give for `C=Cc1ccc(S(=O)(=O)NS(=O)(=O)c2ccccc2)cc1` [MM-P, Benzenesulphonamide, 4-ethenyl-N-(phenylsulphonyl)-, lithium salt] here?
The value was >60 wt %.

Which “Solubility in water at 40° C.” value does the source give for `C=Cc1ccc(S(=O)(=O)NS(N)(=O)=O)cc1` [MM-A, Benzenesulphonamide, 4-ethenyl-N-(aminosulphonyl)-, lithium salt] here?
The value was >60 wt %.

With `C=Cc1ccc(S(=O)(=O)[O-])cc1.[Li+]` [LiSS, Styrene sulphonate, lithium salt, reference compound] as the compound, how does the “Solubility in water at 40° C.” value read?
Its value is 40 wt %.

With `C=Cc1ccc(S(=O)(=O)NS(C)(=O)=O)cc1` [MM-M, Benzenesulphonamide, 4-ethenyl-N-(methylsulphonyl)-, lithium salt] as the compound, how does the “Solubility in water at 40° C.” value read?
Its value is >60 wt %.
